# According to ChEMBL document CHEMBL4396916, “Novel potent substituted 4-amino-2-thiopyrimidines as dual VEGFR-2 and BRAF kinase inhibitors” (Eur J Med Chem, 2019):
# pIC50: −log10 of the molar value.
# Columns and labels:
# [1] = target: Vascular endothelial growth factor receptor 2 (Homo sapiens, UniProt P35968); assay: Inhibition of human N-terminal GST tagged VEGFR-2 expressed in baculovirus infected Sf9 cells using poly (Glu,Tyr) 4:1 as substrate in presence of ATP by Kinase-Glo luminescence assay
# Chain of Vascular endothelial growth factor receptor 2 (P35968 whole entry): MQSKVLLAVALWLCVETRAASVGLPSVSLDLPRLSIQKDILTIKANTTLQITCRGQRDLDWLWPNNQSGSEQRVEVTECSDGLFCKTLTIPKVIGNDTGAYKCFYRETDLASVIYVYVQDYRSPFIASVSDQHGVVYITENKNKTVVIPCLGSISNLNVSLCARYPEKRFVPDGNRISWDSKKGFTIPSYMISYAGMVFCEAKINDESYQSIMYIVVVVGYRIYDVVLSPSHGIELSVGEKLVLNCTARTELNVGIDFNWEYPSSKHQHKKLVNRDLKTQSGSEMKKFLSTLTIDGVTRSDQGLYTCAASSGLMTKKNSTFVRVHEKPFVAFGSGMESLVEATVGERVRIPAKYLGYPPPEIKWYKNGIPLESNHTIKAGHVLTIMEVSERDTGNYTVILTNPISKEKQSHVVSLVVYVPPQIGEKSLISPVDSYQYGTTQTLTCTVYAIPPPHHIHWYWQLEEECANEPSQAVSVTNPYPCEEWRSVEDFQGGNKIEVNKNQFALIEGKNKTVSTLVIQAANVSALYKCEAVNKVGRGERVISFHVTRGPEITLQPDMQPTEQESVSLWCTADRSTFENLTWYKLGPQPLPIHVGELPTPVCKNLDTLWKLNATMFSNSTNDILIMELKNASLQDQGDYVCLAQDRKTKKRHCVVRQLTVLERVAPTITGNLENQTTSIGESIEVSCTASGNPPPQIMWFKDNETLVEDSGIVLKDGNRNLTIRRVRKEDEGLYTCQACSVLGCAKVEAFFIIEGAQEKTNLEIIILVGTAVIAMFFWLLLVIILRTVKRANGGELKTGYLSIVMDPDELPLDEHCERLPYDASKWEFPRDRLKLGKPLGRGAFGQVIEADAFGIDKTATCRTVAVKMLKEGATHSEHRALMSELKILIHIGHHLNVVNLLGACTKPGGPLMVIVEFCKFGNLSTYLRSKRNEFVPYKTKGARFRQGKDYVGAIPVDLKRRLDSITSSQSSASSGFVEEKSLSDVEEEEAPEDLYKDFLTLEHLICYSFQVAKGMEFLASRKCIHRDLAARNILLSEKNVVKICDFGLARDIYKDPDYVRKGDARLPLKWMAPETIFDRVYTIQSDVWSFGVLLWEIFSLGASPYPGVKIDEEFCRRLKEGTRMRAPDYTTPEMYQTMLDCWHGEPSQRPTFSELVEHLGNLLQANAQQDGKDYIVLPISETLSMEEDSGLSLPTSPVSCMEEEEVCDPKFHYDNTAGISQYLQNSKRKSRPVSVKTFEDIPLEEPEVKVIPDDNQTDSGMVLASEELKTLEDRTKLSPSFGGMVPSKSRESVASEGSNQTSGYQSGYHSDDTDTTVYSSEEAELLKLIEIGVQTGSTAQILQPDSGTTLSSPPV
# [2] = target: Serine/threonine-protein kinase B-raf (Homo sapiens, UniProt P15056); assay: Inhibition of human wild type BRAF by Kinase-Glo luminescence assay
# Chain of Serine/threonine-protein kinase B-raf (P15056 whole entry): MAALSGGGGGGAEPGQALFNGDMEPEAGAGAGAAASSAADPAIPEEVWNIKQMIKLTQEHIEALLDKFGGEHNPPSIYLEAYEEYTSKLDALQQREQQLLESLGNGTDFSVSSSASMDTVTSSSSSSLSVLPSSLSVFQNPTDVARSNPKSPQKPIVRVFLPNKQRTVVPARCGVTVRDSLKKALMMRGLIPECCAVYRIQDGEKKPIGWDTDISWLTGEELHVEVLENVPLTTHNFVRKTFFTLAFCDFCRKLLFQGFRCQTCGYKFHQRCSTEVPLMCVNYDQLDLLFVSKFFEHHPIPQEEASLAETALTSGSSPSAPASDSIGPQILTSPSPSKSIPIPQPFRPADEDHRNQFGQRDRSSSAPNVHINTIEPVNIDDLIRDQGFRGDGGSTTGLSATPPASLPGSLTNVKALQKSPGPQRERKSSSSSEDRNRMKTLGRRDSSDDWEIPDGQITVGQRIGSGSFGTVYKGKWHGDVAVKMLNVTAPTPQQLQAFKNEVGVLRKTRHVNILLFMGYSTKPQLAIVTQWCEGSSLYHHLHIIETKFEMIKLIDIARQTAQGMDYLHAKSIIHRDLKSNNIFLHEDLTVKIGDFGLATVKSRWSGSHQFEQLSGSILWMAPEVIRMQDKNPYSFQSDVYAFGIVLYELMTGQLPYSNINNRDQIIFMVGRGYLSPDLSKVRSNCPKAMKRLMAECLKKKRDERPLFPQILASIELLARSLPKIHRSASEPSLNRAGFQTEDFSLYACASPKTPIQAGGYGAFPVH
# CCRF-CEM = assay: Growth inhibition of human CCRF-CEM cells at 10 uM incubated for 48 hrs by sulforhodamine B assay relative to control; type: functional; details: read-out: GI
# K562 = assay: Growth inhibition of human K562 cells at 10 uM incubated for 48 hrs by sulforhodamine B assay relative to control; type: functional; details: K562, 48 h, read-out: GI
# RPMI-8226 = assay: Growth inhibition of human RPMI8226 cells at 10 uM incubated for 48 hrs by sulforhodamine B assay relative to control; type: functional; details: RPMI-8226, 48 h, read-out: GI
# SR = assay: Growth inhibition of human SR cells at 10 uM incubated for 48 hrs by sulforhodamine B assay relative to control; type: functional; details: read-out: GI
# A549 = assay: Growth inhibition of human A549/ATCC cells at 10 uM incubated for 48 hrs by sulforhodamine B assay relative to control; type: functional; details: A549, 48 h, read-out: GI
# HOP-62 = assay: Growth inhibition of human HOP62 cells at 10 uM incubated for 48 hrs by sulforhodamine B assay relative to control; type: functional; details: HOP-62, 48 h, read-out: GI
# HOP-92 = assay: Growth inhibition of human HOP92 cells at 10 uM incubated for 48 hrs by sulforhodamine B assay relative to control; type: functional; details: HOP-92, 48 h, read-out: GI
# NCI-H226 = assay: Growth inhibition of human NCI-H226 cells at 10 uM incubated for 48 hrs by sulforhodamine B assay relative to control; type: functional; details: NCI-H226, 48 h, read-out: GI
# NCI-H23 = assay: Growth inhibition of human NCI-H23 cells at 10 uM incubated for 48 hrs by sulforhodamine B assay relative to control; type: functional; details: NCI-H23, 48 h, read-out: GI
# NCI-H522 = assay: Growth inhibition of human NCI-H522 cells at 10 uM incubated for 48 hrs by sulforhodamine B assay relative to control; type: functional; details: NCI-H522, 48 h, read-out: GI
# COLO 205 = assay: Growth inhibition of human COLO205 cells at 10 uM incubated for 48 hrs by sulforhodamine B assay relative to control; type: functional; details: COLO 205, 48 h, read-out: GI
# HCT-116 = assay: Growth inhibition of human HCT116 cells at 10 uM incubated for 48 hrs by sulforhodamine B assay relative to control; type: functional; details: HCT-116, 48 h, read-out: GI
# HCT-15 = assay: Growth inhibition of human HCT15 cells at 10 uM incubated for 48 hrs by sulforhodamine B assay relative to control; type: functional; details: HCT-15, 48 h, read-out: GI
# HT-29 = assay: Growth inhibition of human HT-29 cells at 10 uM incubated for 48 hrs by sulforhodamine B assay relative to control; type: functional; details: HT-29, 48 h, read-out: GI
# KM12 = assay: Growth inhibition of human KM12 cells at 10 uM incubated for 48 hrs by sulforhodamine B assay relative to control; type: functional; details: KM12, 48 h, read-out: GI
# SW-620 = assay: Growth inhibition of human SW620 cells at 10 uM incubated for 48 hrs by sulforhodamine B assay relative to control; type: functional; details: SW-620, 48 h, read-out: GI
# SF-539 = assay: Growth inhibition of human SF539 cells at 10 uM incubated for 48 hrs by sulforhodamine B assay relative to control; type: functional; details: SF-539, 48 h, read-out: GI
# Malme-3M = assay: Growth inhibition of human MALME-3M cells at 10 uM incubated for 48 hrs by sulforhodamine B assay relative to control; type: functional; details: read-out: GI
# UACC-62 = assay: Growth inhibition of human UACC62 cells at 10 uM incubated for 48 hrs by sulforhodamine B assay relative to control; type: functional; details: UACC-62, 48 h, read-out: GI
# IGROV-1 = assay: Growth inhibition of human IGROV1 cells at 10 uM incubated for 48 hrs by sulforhodamine B assay relative to control; type: functional; details: IGROV-1, 48 h, read-out: GI
# SK-OV-3 = assay: Growth inhibition of human SKOV3 cells at 10 uM incubated for 48 hrs by sulforhodamine B assay relative to control; type: functional; details: SK-OV-3, 48 h, read-out: GI
# A498 = assay: Growth inhibition of human A498 cells at 10 uM incubated for 48 hrs by sulforhodamine B assay relative to control; type: functional; details: A498, 48 h, read-out: GI
# ACHN = assay: Growth inhibition of human ACHN cells at 10 uM incubated for 48 hrs by sulforhodamine B assay relative to control; type: functional; details: read-out: GI
# CAKI-1 = assay: Growth inhibition of human Caki1 cells at 10 uM incubated for 48 hrs by sulforhodamine B assay relative to control; type: functional; details: CAKI-1, 48 h, read-out: GI
# SN12C = assay: Growth inhibition of human SN12C cells at 10 uM incubated for 48 hrs by sulforhodamine B assay relative to control; type: functional; details: read-out: GI
# UO-31 = assay: Growth inhibition of human UO31 cells at 10 uM incubated for 48 hrs by sulforhodamine B assay relative to control; type: functional; details: UO-31, 48 h, read-out: GI
# PC-3 = assay: Growth inhibition of human PC3 cells at 10 uM incubated for 48 hrs by sulforhodamine B assay relative to control; type: functional; details: PC-3, 48 h, read-out: GI
# DU-145 = assay: Growth inhibition of human DU145 cells at 10 uM incubated for 48 hrs by sulforhodamine B assay relative to control; type: functional; details: DU-145, 48 h, read-out: GI
# MDA-MB-231 = assay: Growth inhibition of human MDA-MB-231 cells at 10 uM incubated for 48 hrs by sulforhodamine B assay relative to control; type: functional; details: MDA-MB-231, 48 h, read-out: GI
# T47D = assay: Growth inhibition of human T47D cells at 10 uM incubated for 48 hrs by sulforhodamine B assay relative to control; type: functional; details: read-out: GI
# MDA-MB-468 = assay: Growth inhibition of human MDA-MB-468 cells at 10 uM incubated for 48 hrs by sulforhodamine B assay relative to control; type: functional; details: MDA-MB-468, 48 h, read-out: GI
# MCF7 = assay: Cytotoxicity against human MCF7 cells expressing VEGFR2 and wild type BRAF measured after 48 hrs by sulforhodamine B assay; type: functional, cell-based; details: MCF7, 48 h
structure (smiles),measurement,setting,value
CC(=O)c1ccc(Nc2ccnc(SCC(=O)c3ccc(-c4ccccc4)cc3)n2)cc1,pIC50,[1],6.55
same,pIC50,[2],5.98
same,inhibition of growth at 10 µM,CCRF-CEM,22%
same,inhibition of growth at 10 µM,K562,10%
same,inhibition of growth at 10 µM,RPMI-8226,26%
same,inhibition of growth at 10 µM,SR,41%
same,inhibition of growth at 10 µM,A549,20%
same,inhibition of growth at 10 µM,HOP-62,13%
same,inhibition of growth at 10 µM,HOP-92,21%
same,inhibition of growth at 10 µM,NCI-H226,11%
same,inhibition of growth at 10 µM,NCI-H23,10%
same,inhibition of growth at 10 µM,NCI-H522,22%
same,inhibition of growth at 10 µM,COLO 205,11%
same,inhibition of growth at 10 µM,HCT-116,42%
same,inhibition of growth at 10 µM,HCT-15,13%
same,inhibition of growth at 10 µM,HT-29,16%
same,inhibition of growth at 10 µM,KM12,24%
same,inhibition of growth at 10 µM,SW-620,26%
same,inhibition of growth at 10 µM,SF-539,13%
same,inhibition of growth at 10 µM,Malme-3M,14%
same,inhibition of growth at 10 µM,UACC-62,20%
same,inhibition of growth at 10 µM,IGROV-1,14%
same,inhibition of growth at 10 µM,SK-OV-3,11%
same,inhibition of growth at 10 µM,A498,55%
same,inhibition of growth at 10 µM,ACHN,26%
same,inhibition of growth at 10 µM,CAKI-1,16%
same,inhibition of growth at 10 µM,SN12C,11%
same,inhibition of growth at 10 µM,UO-31,27%
same,inhibition of growth at 10 µM,PC-3,19%
same,inhibition of growth at 10 µM,DU-145,16%
same,inhibition of growth at 10 µM,MDA-MB-231,22%
same,inhibition of growth at 10 µM,T47D,29%
same,inhibition of growth at 10 µM,MDA-MB-468,13%
same,pIC50,MCF7,4.18
